Measurements published in patent US20040052799A1, “Nucleic acid and amino acid sequences relating to Helicobacter pylori for diagnostics and therapeutics” (Astra Aktiebolag, priority 1996, published 2004).
Read-outs that look alike come from different tables or passages of the source.

Tests used:
[1] = Stability of ASA in solution; assay type: physicochemical
Procedure: ASA in 4 N HCl was prepared daily for use in Asd assays by partial neutralization with addition of 1.0 equivalent of […], with a resulting pH=1-2. The amount of ASA was determined enzymatically by complete reaction in the presence of excess NADP^+and phosphate. […] These observations are consistent with previous reports on the stability of ASA (Karsten et al., 1991, Biochim. Biophys. Acta 1077, 209-219). Assays were performed in the following buffer: 200 mM HEPES, 0.3 mM NADP^+, 30 mM NaH2PO4, 1.0 mM DTT, pH 7.5 or pH 8.0. ASA was used in the assay at concentrations of 5-165 μM by diluting the partially-neutralized ASA stock into the assay 10-200 fold, leading to a decrease in pH of 0.1 units or less. Reaction was initiated with the addition of enzyme to a final concentration of 3.5-70 nM.

[2] = biological target: T1, H. pylori glutamate racemase (Helicobacter pylori, UniProt Q9ZLT0); assay: Inactivation of glutamate racemase by L-serine-O-sulfate, single enzyme coupled assay; assay type: biochemical; conditions: 20 mM L-serine-O-sulfate, different incubation times, FIG. 7
T1 construct: made in house; host or cells: E. coli BL21(DE3) carrying pET-23-murI and pACYC-groE (GroES/GroEL co-expressed)
T1 sequence (Q9ZLT0 whole entry): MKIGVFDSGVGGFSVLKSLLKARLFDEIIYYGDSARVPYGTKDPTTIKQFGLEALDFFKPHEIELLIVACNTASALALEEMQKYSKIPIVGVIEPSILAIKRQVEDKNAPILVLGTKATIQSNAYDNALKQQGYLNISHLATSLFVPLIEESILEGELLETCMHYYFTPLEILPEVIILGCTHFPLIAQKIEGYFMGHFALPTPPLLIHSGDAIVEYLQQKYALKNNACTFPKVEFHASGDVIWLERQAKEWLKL
Procedure: In this assay, the conversion of D-glutamic acid to L-glutamic acid is coupled to the conversion of L-glutamic acid and NAD^+by L-glutamate dehydrogenase to 2-oxoglutarate, ammonia. The production of NADH is measured as an increase of absorbance at 340 nm (the reduction of NAD^+ to NADH) at 37° C. The standard assay mixture (adapted from Choi, S- Y, Esaki, N., Yoshimura, T., and Soda, K., 1991, Protein Expression and Purification 2, 90-93) contained 10 mM Tris-HCl, pH 7.5, 5 mM NAD+, 5 Units/ml L-glutamate dehydrogenase, varying concentrations of the substrate D-Glutamic Acid (0.063 mM to 250 mM), and the purified recombinant H. pylori enzyme glutamate racemase (1 μg to 50 μg). The reaction was started by the addition of either the substrate D-glutamic acid or the recombinant glutamate racemase after a preincubation at 37° C. for 5 minutes with all of the other assay ingredients. The change in absorbance at 340 nm was measured in a Spectra MAX 250. Initial velocities were derived from the initial slopes. […]
The H. pylori glutamate racemase was tested for inactivation with a sucuide inhibitor, L-serine-O sulfate, which is known to inhibit murI from E. coli. […] The initial velocity of purified recombinant H. pylroi murI protein was determined in the single enzyme coupled asssay following incubation with the inhibitor L-serine-O-sulfate (LSOS) at 20 mM for the times indicated on the x-axis. […]

H. pylori (strain AH244) = assay type: in vivo; conditions: BALB/c mice infected with strain AH244, 100 μg antigen + 10 μg CT orally, compared to control, FIGS. 3 and 4
H. pylori Asd = H. pylori Asd (Helicobacter pylori, UniProt Q9ZK28); assay: Asd assay, reverse reaction, NADPH formation; conditions: read-out: Km for phosphate; pH 8.0
Sequence of H. pylori Asd (Q9ZK28 whole entry): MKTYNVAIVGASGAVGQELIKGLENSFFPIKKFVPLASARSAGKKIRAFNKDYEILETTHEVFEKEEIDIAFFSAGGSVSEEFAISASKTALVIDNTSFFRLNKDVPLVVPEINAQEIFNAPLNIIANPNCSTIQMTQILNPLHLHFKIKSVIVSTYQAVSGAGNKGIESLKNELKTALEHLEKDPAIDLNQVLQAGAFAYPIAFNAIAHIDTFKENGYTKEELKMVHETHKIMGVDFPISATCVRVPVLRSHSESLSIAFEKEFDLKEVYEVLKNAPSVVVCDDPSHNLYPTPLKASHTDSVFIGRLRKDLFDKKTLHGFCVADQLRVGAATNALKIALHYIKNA
Procedure: (§1) The enzymatic activity of purified His-tagged H. pylori Asd (SEQ ID NO: 6545) was characterized by assaying the reverse reaction of phosphorylation of L-aspartate-β-semialdehyde (ASA) to L-p-aspartyl phosphate, with concomitant reduction of NADP^+ to NADPH. The formation of NADPH was detected by its absorbance, 340 nm, or by its fluorescence, excitation =340 nm, emission 455 nm.
(§2) ASA in 4 N HCl was prepared daily for use in Asd assays by partial neutralization with addition of 1.0 equivalent of […], with a resulting pH=1-2. The amount of ASA was determined enzymatically by complete reaction in the presence of excess NADP^+and phosphate. […] Assays were performed in the following buffer: 200 mM HEPES, 0.3 mM NADP^+, 30 mM NaH2PO4, 1.0 mM DTT, pH 7.5 or pH 8.0. ASA was used in the assay at concentrations of 5-165 μM by diluting the partially-neutralized ASA stock into the assay 10-200 fold, leading to a decrease in pH of 0.1 units or less. Reaction was initiated with the addition of enzyme to a final concentration of 3.5-70 nM.

E. coli Asd = biological target: T2, E. coli Asd (Escherichia coli, UniProt P0A9Q9); assay: Asd assay, reverse reaction, NADPH formation; assay type: biochemical; conditions: pH 7.5; read-out: Km for phosphate
T2 construct: made in house; host or cells: E. coli HMS174 pLysS, pET28b
T2 sequence (P0A9Q9 1-367): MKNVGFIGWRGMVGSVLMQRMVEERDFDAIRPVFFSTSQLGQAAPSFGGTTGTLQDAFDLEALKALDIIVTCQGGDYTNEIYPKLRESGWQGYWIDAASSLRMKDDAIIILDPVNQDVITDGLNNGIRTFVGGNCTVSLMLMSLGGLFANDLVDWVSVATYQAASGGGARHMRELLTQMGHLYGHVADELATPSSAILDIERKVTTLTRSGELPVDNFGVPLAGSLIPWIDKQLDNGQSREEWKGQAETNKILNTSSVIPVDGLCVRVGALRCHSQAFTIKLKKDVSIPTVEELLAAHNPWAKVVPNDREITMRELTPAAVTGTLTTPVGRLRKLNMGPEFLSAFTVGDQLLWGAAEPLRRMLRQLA
Procedure: as §1, §2

## N[C@@H](CC=O)C(=O)O [ASA, L-aspartate-β-semialdehyde]
[1]; assay buffer, pH 7.7 (under assay conditions), read-out: t½ (converted)
  half-life: 5 h
[1]; pH 1.4
  time ASA found to be stable: up to 48 hours

## N[C@@H](COS(=O)(=O)O)C(=O)O [L-Serine-O-Sulfate]
[2]
  inactivation of glutamate racemase by the inhibitor (residual initial velocity): readily inactivated

## lacZ: non-Helicobacter pylori control protein (β-galactosidase from E. coli) constructed with a hexa-HIS tag [reference compound]
H. pylori (strain AH244)
  degree of colonization of the antrum: higher Helicobacter colonization
  reduction and/or eradication of the H. pylori infection (therapeutic immunization effect): no eradication effect
H. pylori (strain AH244); listed as LacZ
  degree of colonization of the antrum: highest colonization in the antrum

## phosphate [reference compound]
H. pylori Asd
  Km: 2100 µM
E. coli Asd
  Km: 1300 µM
